Measured values reported in US20210015811A1, “METHODS OF TREATING A PULMONARY BACTERIAL INFECTION USING FLUOROQUINOLONES” (HORIZON ORPHAN, LLC, priority 2009, published 2021).
Values after ≈ are worked out from the molar mass of the structure shown.

What was measured:
[1] = test system: 114 CF P. aeruginosa isolates; assay: Aerobic and anaerobic MIC susceptibility testing (broth microdilution, CLSI); format: cell-based, Pseudomonas aeruginosa; details: for aerobic versus anaerobic MIC distribution (potency under anaerobic conditions): all 114 P. aeruginosa isolates, FIGS. 2A-D; for increase of geometric mean of the MIC by anaerobic incubation / increase of MIC50 under anaerobic conditions: 114 CF isolates; for increase of MIC50 under anaerobic conditions: CAMHB + 1% KNO3 for anaerobic
Source text: One hundred and fourteen CF P. aeruginosa isolates were obtained for susceptibility testing from the CF Referral Center for Susceptibility & Synergy Studies at Columbia University (New York, N.Y.) and also from two CF Therapeutics Development Network (TDN) laboratories (Seattle Children's Hospital, Seattle, Wash. and University of North Carolina at Chapel Hill, Chapel Hill, N.C.). About sixty percent were recent isolates (2004-2007) with the remaining forty percent isolated between 1980 and 2004.
The antibiotics used in these studies included tobramycin, levofloxacin, amikacin, and aztreonam which are in use or in development as aerosolized therapies for CF. For aerobic susceptibility tests, levofloxacin hydrochloride, tobramycin sulfate, and amikacin disulfate were purchased from LKT Laboratories (St. Paul, Minn.) and aztreonam base was purchased from MP Biomedicals (Solon, Ohio). All antibiotics used for anaerobic susceptibility tests were purchased from the United States Pharmacopeia (Rockville, Md.).
(§1) Antibiotic MIC endpoints were obtained using the broth microdilution method according to the CLSI reference method. See Clinical and Laboratory Standards Institute. Methods for Dilution Antimicrobial Susceptibility Tests for Bacteria That Grow Aerobically—Seventh Edition: Approved Standard M7-A7. CLSI, Wayne, Pa., USA, 2006. Antibiotics were serially diluted to the following concentrations for aerobic testing: levofloxacin and tobramycin from 0.03-32 mg/L and amikacin and aztreonam from 0.125-128 mg/L. Anaerobic susceptibility testing required the addition of 1% potassium nitrate (KNO3) to cation-adjusted Mueller-Hinton broth (CAMHB) to allow for P. aeruginosa anaerobic respiration. For anaerobic testing, frozen MIC plates were thawed and stored in the anaerobic chamber overnight to ensure elimination of all oxygen prior to inoculation with test strains. The dilution range for all antibiotics was 0.125-128 mg/L for the anaerobic susceptibility tests. Extended incubation of up to 48 hours under anaerobic conditions may be required and was needed for 54% of the isolates.

[2] = test system: P. aeruginosa strain PAM1481 (na1B gyrA (Asp87Tyr)); assay: Levofloxacin MIC against isogenic strain PAM1481; format: cell-based; details: Pseudomonas aeruginosa
Source text: (§2) P. aeruginosa strains PAM1020 (wild-type), PAM1032 (na1B), PAM1481 (na1B gyrA (Asp87Tyr)), and PAM1573 (na1B gyrA (Thr83Ile)) represent relevant efflux-mediated and target mutation resistance mechanisms and were used in the levofloxacin time-kill assays.
as §1, with “The dilution range for all antibiotics was 0.125-128 mg/L for the anaerobic susceptibility tests. Extended incubation of up to 48 hours under anaerobic conditions may be required and was needed for 54% of the isolates.” left out
(§3) Aerobic and hypoxic Mueller-Hinton broth (MHB) cultures were diluted to an initial inoculum of 1×10^7-1×10^8 CFU/ml. […] Agar plates were incubated up to 48 hours at 37° C. and bactericidal activity was assessed. […]

[3] = test system: P. aeruginosa strain PAM1032 (na1B); assay: Levofloxacin MIC against isogenic strain PAM1032; format: cell-based; details: Pseudomonas aeruginosa
Source text: as §2
as §1, with “The dilution range for all antibiotics was 0.125-128 mg/L for the anaerobic susceptibility tests. Extended incubation of up to 48 hours under anaerobic conditions may be required and was needed for 54% of the isolates.” left out
as §3

[4] = test system: P. aeruginosa strain PAM1573 (na1B gyrA (Thr83Ile)); assay: Levofloxacin MIC against isogenic strain PAM1573; format: cell-based; details: Pseudomonas aeruginosa
Source text: as §2
as §1, with “The dilution range for all antibiotics was 0.125-128 mg/L for the anaerobic susceptibility tests. Extended incubation of up to 48 hours under anaerobic conditions may be required and was needed for 54% of the isolates.” left out
as §3

[5] = test system: P. aeruginosa strain PAM1020 (wild-type); assay: Levofloxacin MIC against isogenic strain PAM1020; format: cell-based; details: Pseudomonas aeruginosa
Source text: as §2
as §1, with “The dilution range for all antibiotics was 0.125-128 mg/L for the anaerobic susceptibility tests. Extended incubation of up to 48 hours under anaerobic conditions may be required and was needed for 54% of the isolates.” left out
as §3

[6] = anaerobic vs aerobic incubation

aerobic versus anaerobic MIC distribution (potency under anaerobic conditions) [1]	increase of geometric mean of the MIC by anaerobic incubation [1, 6]	SMILES	increase of MIC50 under anaerobic conditions [1, 6]	MIC [2]	MIC [3]	MIC [4]	isolates with MIC increase >4-fold under anaerobic conditions ([1]; anaerobic vs aerobic incubation, share of 114 CF isolates)	MIC [5]
reduced potency	approximately 7 fold	NC[C@H]1O[C@H](O[C@H]2[C@H](O)[C@@H](O[C@H]3O[C@H](CO)[C@@H](O)[C@H](N)[C@H]3O)[C@H](N)C[C@@H]2N)[C@H](N)C[C@@H]1O [tobramycin]	4 fold	–	–	–	–	–
–	–	C[C@H]1COc2c(N3CCN(C)CC3)c(F)cc3c(=O)c(C(=O)O)cn1c23 [levofloxacin]	2 fold	4 µg/mL (≈ 11.1 µM)	1 µg/mL (≈ 2.77 µM)	8 µg/mL (≈ 22.1 µM)	4%	0.125 µg/mL (≈ 0.346 µM)
reduced potency	~4 fold	NCC[C@H](O)C(=O)N[C@@H]1C[C@H](N)[C@@H](O[C@H]2O[C@H](CN)[C@@H](O)[C@H](O)[C@H]2O)[C@H](O)[C@H]1O[C@H]1O[C@H](CO)[C@@H](O)[C@H](N)[C@H]1O [amikacin]	–	–	–	–	–	–

SMILES	aerobic versus anaerobic MIC distribution (potency under anaerobic conditions) [1]	increase of geometric mean of the MIC by anaerobic incubation [1, 6]	increase of MIC50 under anaerobic conditions [1, 6]	MIC [2]	MIC [3]	MIC [4]	isolates with MIC increase >4-fold under anaerobic conditions ([1]; anaerobic vs aerobic incubation, share of 114 CF isolates)	MIC [5]
C[C@H]1[C@H](NC(=O)/C(=N\OC(C)(C)C(=O)O)c2csc(N)n2)C(=O)N1S(=O)(=O)O [aztreonam]	reduced potency	~6 fold	16 fold	–	–	–	–	–
